Laboratory results published in PubChem BioAssay AID248 (DTP/NCI, 2004).
Where “and” joins values, the source holds several entries; their conditions need not be identical. Identical values can stand only once. Toxic doses and inconclusive results are not listed. Rule as the data show it: active = T/C of 150% or more; inactive = T/C below 125%.

Test system: L1210 leukemia ip in BDF1 mice, survival T/C
Assay: NCI In Vivo Anticancer Drug Screen. Data for tumor model L1210 Leukemia (intraperitoneal) in B6D2F1 (BDF1) mice
Settings: endpoint: mean survival time, higher = longer survival
In short: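 Transplantable tumor model; survival measured in treated vs vehicle control mice. Value = treated/control.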

[1] = dose: 100.0 mg/kg/injection, schedule: Q01DX009 (ip), vehicle: saline
[2] = dose: 100.0 mg/kg/injection, schedule: Q04DX003 (ip), vehicle: saline
[3] = dose: 200.0 mg/kg/injection, schedule: Q01DX009 (ip), vehicle: saline
[4] = dose: 200.0 mg/kg/injection, schedule: Q04DX003 (ip), vehicle: saline
[5] = dose: 400.0 mg/kg/injection, schedule: Q04DX003 (ip), vehicle: saline
[6] = dose: 50.0 mg/kg/injection, schedule: Q01DX009 (ip), vehicle: saline
[7] = dose: 100.0 mg/kg/injection, schedule: Q01DX001 (ip), vehicle: saline
[8] = dose: 200.0 mg/kg/injection, schedule: Q01DX001 (ip), vehicle: saline
[9] = dose: 100.0 mg/kg/injection, schedule: Q04DX002 (ip), vehicle: saline with Tween-80
[10] = dose: 200.0 mg/kg/injection, schedule: Q04DX002 (ip), vehicle: saline with Tween-80
[11] = dose: 400.0 mg/kg/injection, schedule: Q04DX002 (ip), vehicle: saline with Tween-80
[12] = dose: 100.0 mg/kg/injection, schedule: Q04DX003 (ip), vehicle: saline with Tween-80
[13] = dose: 200.0 mg/kg/injection, schedule: Q04DX003 (ip), vehicle: saline with Tween-80
[14] = dose: 400.0 mg/kg/injection, schedule: Q04DX003 (ip), vehicle: saline with Tween-80
[15] = dose: 100.0 mg/kg/injection, schedule: Q01DX009 (ip), vehicle: Klucel (hydroxypropylcellulose) (HPC)
[16] = dose: 100.0 mg/kg/injection, schedule: Q04DX003 (ip), vehicle: Klucel (hydroxypropylcellulose) (HPC)
[17] = dose: 200.0 mg/kg/injection, schedule: Q01DX009 (ip), vehicle: Klucel (hydroxypropylcellulose) (HPC)
[18] = dose: 200.0 mg/kg/injection, schedule: Q04DX003 (ip), vehicle: Klucel (hydroxypropylcellulose) (HPC)
[19] = dose: 400.0 mg/kg/injection, schedule: Q01DX009 (ip), vehicle: Klucel (hydroxypropylcellulose) (HPC)
[20] = dose: 100.0 mg/kg/injection, schedule: Q01DX009 (ip), vehicle: saline with Tween-80
[21] = dose: 200.0 mg/kg/injection, schedule: Q01DX009 (ip), vehicle: saline with Tween-80
[22] = dose: 400.0 mg/kg/injection, schedule: Q01DX009 (ip), vehicle: saline with Tween-80

Measured: T/C

CC(N)=O.CC(N)=O.Nc1ccnc(=O)[nH]1.[Cl][Pt]
inactive: [1] 110 % of control | [2] 114 % of control | [3] 114 % of control | [4] 116 % of control | dose: 400.0 mg/kg/injection, schedule: Q01DX009 (ip), vehicle: saline 101 % of control | [5] 119 % of control

O=C(O)Cc1ccc(NC(=O)NCCCl)cc1
inactive: dose: 100.0 mg/kg/injection, schedule: Q01DX001 (ip), vehicle: carboxymethylcellulose (CMC) 87 % of control | dose: 200.0 mg/kg/injection, schedule: Q01DX001 (ip), vehicle: carboxymethylcellulose (CMC) 98 % of control | dose: 400.0 mg/kg/injection, schedule: Q01DX001 (ip), vehicle: carboxymethylcellulose (CMC) 93 % of control

C/C=C/S(=O)(=O)c1ccccc1
inactive: dose: 75.0 mg/kg/injection, schedule: Q01DX001 (ip), vehicle: carboxymethylcellulose (CMC) 100 % of control

ON=c1c2ccccc2c2ccccc2c2ccccc12
inactive: dose: 75.0 mg/kg/injection, schedule: Q04DX002 (ip), vehicle: gum acacia 109 % of control | dose: 150.0 mg/kg/injection, schedule: Q04DX002 (ip), vehicle: gum acacia 105 % of control | dose: 300.0 mg/kg/injection, schedule: Q04DX002 (ip), vehicle: gum acacia 105 % of control

NC(=O)c1[nH]cnc1[N+]1=NN(c2ccccc2)CC1
inactive: [6] 102 % of control | [1] 94 % of control | [3] 102 % of control

CCCCC(=O)N/N=C/c1ccc(N(C)C)cc1
inactive: [7] 91 % of control | [8] 87 % of control | dose: 400.0 mg/kg/injection, schedule: Q01DX001 (ip), vehicle: saline 95 % of control

O=[N+]([O-])c1ccc(Cc2ccccc2)cc1 (tested in a mixture with another compound)
inactive: [9] 101 % of control | [10] 101 % of control | [11] 97 % of control

CN(C)C(=O)Nc1cccc(OC(=O)NC2CC2)c1
inactive: [12] 96 % of control | [13] 95 % of control | [14] 90 % of control

O=C(NC(=S)Nc1ccc(Cl)c(Cl)c1)c1cccc([N+](=O)[O-])c1
inactive: [15] 95 % of control | dose: 100.0 mg/kg/injection, schedule: Q04DX002 (ip), vehicle: Klucel (hydroxypropylcellulose) (HPC) 95 % of control and 97 % of control | [16] 93 % of control | [17] 95 % of control | dose: 200.0 mg/kg/injection, schedule: Q04DX002 (ip), vehicle: Klucel (hydroxypropylcellulose) (HPC) 93 % of control and 97 % of control | [18] 95 % of control | [19] 92 % of control and 94 % of control | dose: 400.0 mg/kg/injection, schedule: Q04DX002 (ip), vehicle: Klucel (hydroxypropylcellulose) (HPC) 95 % of control and 102 % of control | dose: 400.0 mg/kg/injection, schedule: Q04DX003 (ip), vehicle: Klucel (hydroxypropylcellulose) (HPC) 93 % of control

O=C1c2cccc([N+](=O)[O-])c2C(=O)c2c1cccc2[N+](=O)[O-]
inactive: [9] 93 % of control | [10] 104 % of control | [11] 100 % of control

CC(=O)C(C)=P(c1ccccc1)(c1ccccc1)c1ccccc1
inactive: dose: 25.0 mg/kg/injection, schedule: Q01DX009 (ip), vehicle: saline 101 % of control | [6] 102 % of control | [1] 96 % of control | [2] 98 % of control | [4] 88 % of control | [5] 88 % of control

CCN(CC)CC(=O)NCC(CCN(C)C)(c1cccc2ccccc12)C(C)C (stereo not given)
inactive: [2] 102 % of control | [4] 93 % of control

CC(=O)OC(C)(C)/C=C/C(=O)[C@](C)(O)[C@H]1[C@H](O)C[C@@]2(C)[C@@H]3CC=C4[C@@H](C=C(O)C(=O)C4(C)C)[C@]3(C)C(=O)C[C@]12C
inactive: dose: 0.4 mg/kg/injection, schedule: Q01DX Z (ip), vehicle: carboxymethylcellulose (CMC) 94 % of control | dose: 0.8 mg/kg/injection, schedule: Q01DX Z (ip), vehicle: carboxymethylcellulose (CMC) 100 % of control | dose: 1.6 mg/kg/injection, schedule: Q01DX Z (ip), vehicle: carboxymethylcellulose (CMC) 105 % of control | dose: 3.2 mg/kg/injection, schedule: Q01DX Z (ip), vehicle: carboxymethylcellulose (CMC) 100 % of control

O=C(Cn1ccc(O)cc1=O)c1ccco1
inactive: [20] 108 % of control | [12] 96 % of control | [21] 104 % of control | [13] 94 % of control | [22] 101 % of control | [14] 97 % of control

N=C(N)c1ccc(OCCCCCOc2ccc(C(=N)N)cc2)cc1
inactive: dose: 12.5 mg/kg/injection, schedule: Q01DX Z (oral), vehicle: saline 95 % of control | dose: 25.0 mg/kg/injection, schedule: Q01DX Z (oral), vehicle: saline 95 % of control | dose: 50.0 mg/kg/injection, schedule: Q01DX Z (oral), vehicle: saline 100 % of control | dose: 100.0 mg/kg/injection, schedule: Q01DX Z (oral), vehicle: saline 100 % of control

O=C(O)c1cccc(F)c1O
inactive: [7] 97 % of control | [8] 97 % of control

CCOc1ccc(Nc2c3ccccc3nc3ccccc23)cc1
inactive: dose: 12.5 mg/kg/injection, schedule: Q01DX009 (ip), vehicle: saline with Tween-80 102 % of control | dose: 20.0 mg/kg/injection, schedule: Q01DX009 (ip), vehicle: saline with Tween-80 108 % of control | dose: 25.0 mg/kg/injection, schedule: Q01DX009 (ip), vehicle: saline with Tween-80 123 % of control | dose: 30.0 mg/kg/injection, schedule: Q01DX009 (ip), vehicle: saline with Tween-80 110 % of control | dose: 44.0 mg/kg/injection, schedule: Q01DX009 (ip), vehicle: saline with Tween-80 105 % of control | dose: 50.0 mg/kg/injection, schedule: Q01DX009 (ip), vehicle: saline with Tween-80 123 % of control | dose: 66.0 mg/kg/injection, schedule: Q01DX009 (ip), vehicle: saline with Tween-80 111 % of control and 123 % of control | [20] 94 % of control

Cc1ccc(NC(=O)Nc2ccccc2F)cc1NC(=O)Nc1ccccc1F
inactive: [20] 93 % of control | [21] 88 % of control | [22] 94 % of control

C=C1C=C(C)N(C(=O)c2ccccc2)CCN1C(=O)c1ccccc1
inactive: [2] 96 % of control | [4] 95 % of control | [5] 106 % of control

CCCC/C(=N\N=C(N)N)c1ccc(F)cc1
inactive: dose: 15.0 mg/kg/injection, schedule: Q01DX Z (ip), vehicle: methylcellulose (MC) 104 % of control | dose: 15.0 mg/kg/injection, schedule: Q01DX Z (oral), vehicle: methylcellulose (MC) 94 % of control | dose: 30.0 mg/kg/injection, schedule: Q01DX Z (ip), vehicle: methylcellulose (MC) 93 % of control | dose: 30.0 mg/kg/injection, schedule: Q01DX Z (oral), vehicle: methylcellulose (MC) 94 % of control

Brc1ccc(Oc2ccccc2)cc1
inactive: [20] 101 % of control | [12] 102 % of control | [21] 95 % of control | [13] 97 % of control | [22] 97 % of control | [14] 108 % of control

CC(=NC(CC(C)C)C(=O)O)NC(CC(C)C)C(=O)O (stereo not given)
inactive: [15] 101 % of control | [17] 110 % of control | [19] 103 % of control

NNC(=O)CCC(=O)NN
inactive: [20] 100 % of control | [21] 99 % of control | [22] 100 % of control

CCOC(=O)Cc1cnc(C)[nH]c1=O
inactive: [15] 95 % of control | [17] 101 % of control | [19] 96 % of control

CC(C)CNNCC(C)C
inactive: dose: 75.0 mg/kg/injection, schedule: Q01DX001 (ip), vehicle: other 103 % of control

COc1ccccc1NC(=O)NCCN1CCCC1
inactive: [15] 98 % of control | [17] 98 % of control

CC(=O)n1c(O)c(N=NC(=O)c2ccccc2[N+](=O)[O-])c2ccccc21
inactive: [15] 86 % of control | [17] 93 % of control | [19] 89 % of control

CC(N)c1ccc(OCCOc2ccc(C(C)(C)CC(C)(C)C)cc2)cc1 (stereo not given)
inactive: dose: 6.25 mg/kg/injection, schedule: Q01DX009 (ip), vehicle: Klucel (hydroxypropylcellulose) (HPC) 93 % of control | dose: 12.5 mg/kg/injection, schedule: Q01DX009 (ip), vehicle: Klucel (hydroxypropylcellulose) (HPC) 94 % of control | dose: 25.0 mg/kg/injection, schedule: Q01DX009 (ip), vehicle: Klucel (hydroxypropylcellulose) (HPC) 93 % of control | [16] 96 % of control | [18] 95 % of control
